This assay has as its target T1, uroporphyrinogen decarboxylase (UROD) (Homo sapiens, UniProt P06132).
T1 construct: recombinant UROD (GenBank BC001778) with 5'-histidine tag and thrombin cleavage site
T1 sequence (P06132 1-367): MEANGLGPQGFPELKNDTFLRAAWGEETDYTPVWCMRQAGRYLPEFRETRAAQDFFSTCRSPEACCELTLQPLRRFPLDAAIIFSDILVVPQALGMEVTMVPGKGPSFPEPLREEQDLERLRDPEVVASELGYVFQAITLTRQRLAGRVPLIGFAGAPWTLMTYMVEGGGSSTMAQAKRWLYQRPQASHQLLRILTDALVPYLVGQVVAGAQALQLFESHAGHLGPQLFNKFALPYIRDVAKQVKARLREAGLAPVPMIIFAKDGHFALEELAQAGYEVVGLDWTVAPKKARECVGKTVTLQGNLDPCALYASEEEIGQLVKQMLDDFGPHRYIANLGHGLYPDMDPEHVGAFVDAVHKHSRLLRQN
The assay can be described thus: Recombinant UROD enzyme assay with RP-HPLC fluorescence detection of uroporphyrin/coproporphyrin ([…] UROD, […] uroporphyrinogen). The class given is biochemical.

What is called IC50 is the concentration needed to halve the response being measured.

`CC1=C(CCC(=O)O)C2=Cc3[nH]c(c(C)c3CCC(=O)O)C(C)(C)C3=NC(=Cc4[nH]c(c(C)c4CCC(=O)O)C(C)(C)C1=N2)C(CCC(=O)O)=C3C` [PI-16]: the IC50 worked out at 9.9 µM.
